# Experiments:
# Test in all cases: Competitive ligand binding assay ([3H]-1,25D3 displacement)
# Settings in all cases: lysate with VDR and human RXRWT; 4 nM [3H]-1,25D3; 18 hours at 4°C; Cheng-Prusoff; mean ± SEM
# [1] = biological target: T1, Lamprey VDR (Petromyzon marinus, UniProt Q7ZZY9)
# T1 sequence (Q7ZZY9 1-406): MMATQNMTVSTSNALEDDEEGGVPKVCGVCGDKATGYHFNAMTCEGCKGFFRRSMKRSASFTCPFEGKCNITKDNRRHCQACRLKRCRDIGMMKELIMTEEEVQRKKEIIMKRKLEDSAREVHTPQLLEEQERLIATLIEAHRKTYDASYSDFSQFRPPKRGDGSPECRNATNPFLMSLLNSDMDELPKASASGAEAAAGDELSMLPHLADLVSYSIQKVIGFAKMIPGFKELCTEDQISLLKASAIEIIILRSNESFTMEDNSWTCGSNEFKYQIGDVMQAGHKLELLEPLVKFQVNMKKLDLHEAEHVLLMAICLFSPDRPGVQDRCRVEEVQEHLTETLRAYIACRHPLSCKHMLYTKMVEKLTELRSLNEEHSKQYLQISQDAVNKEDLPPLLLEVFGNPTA
# T1 sequence (P19793 1-462 partner): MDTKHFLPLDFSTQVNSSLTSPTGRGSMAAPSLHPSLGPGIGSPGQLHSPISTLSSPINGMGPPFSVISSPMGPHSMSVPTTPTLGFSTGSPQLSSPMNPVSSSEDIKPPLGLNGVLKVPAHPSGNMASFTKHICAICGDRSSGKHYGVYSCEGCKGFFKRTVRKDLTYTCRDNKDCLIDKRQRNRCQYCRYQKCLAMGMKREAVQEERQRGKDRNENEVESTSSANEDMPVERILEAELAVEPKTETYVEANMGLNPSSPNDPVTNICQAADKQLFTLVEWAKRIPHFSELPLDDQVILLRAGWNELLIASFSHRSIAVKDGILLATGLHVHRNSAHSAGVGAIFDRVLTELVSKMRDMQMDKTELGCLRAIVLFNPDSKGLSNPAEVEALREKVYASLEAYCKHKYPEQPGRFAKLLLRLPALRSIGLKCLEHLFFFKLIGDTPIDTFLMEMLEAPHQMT
# Protocol: (§1) Recombinant VDR and human RXRWT lysates were prepared from transfected COS7 cells (American Type Culture Collection #CRL-1651) as described in detail previously. Lysates were diluted 10-fold in ice-cold assay buffer (10 mM Tris HCl, 150 mM KCl, 1 mM EDTA, 0.3 mM ZnCl2, 5 mM DTT, and 1x protease inhibitor cocktail (100 μM AEBSF, 80 nM aprotinin, 5 μM bestatin, 1.5 μM E-64 (for cysteine proteases), 2 μM leupeptin, 1 μM pepstatin A), pH 7.5). […] Reactions were shaken to mix and incubated for 18 hours at 4°C. Bound and free ligand were separated with the addition of 80 μL of ice-cold separation buffer (2.5% (w/v) activated charcoal, 0.5% (w/v) dextran, 100 mM Na2HPO4, 39 mM NaH2PO4, 150 mM NaCl, 15 mM NaN3, 10% gelatin, pH 7.0), and incubated at 4°C for 15 minutes with shaking every 5 minutes. Reactions were centrifuged at 5,000 x g for 5 minutes at 4°C, and 200 μL of the supernatant containing the VDR-bound ligands was removed for scintillation counting.
# (§2) Total binding was determined using lysate from cells transfected with VDR, and nonspecific binding was determined using lysate from cells transfected with the empty pSG5 vector. Specific binding was determined by subtracting non-specific binding counts from the total binding counts.
# [2] = biological target: T2, Medaka VDRβ (Oryzias latipes, UniProt B2CCA1)
# T2 sequence (B2CCA1 1-425): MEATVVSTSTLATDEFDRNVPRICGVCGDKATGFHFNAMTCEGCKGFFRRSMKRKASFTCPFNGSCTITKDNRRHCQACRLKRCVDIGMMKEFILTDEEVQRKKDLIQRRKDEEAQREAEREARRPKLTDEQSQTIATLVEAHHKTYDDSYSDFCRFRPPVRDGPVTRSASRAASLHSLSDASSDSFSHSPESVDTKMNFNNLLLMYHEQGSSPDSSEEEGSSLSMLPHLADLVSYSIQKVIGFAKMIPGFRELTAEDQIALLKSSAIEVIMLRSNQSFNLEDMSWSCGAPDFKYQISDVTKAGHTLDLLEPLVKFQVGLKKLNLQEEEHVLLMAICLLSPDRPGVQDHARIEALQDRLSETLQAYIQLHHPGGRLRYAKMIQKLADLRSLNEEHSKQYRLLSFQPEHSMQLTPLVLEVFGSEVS
# T2 sequence (P19793 1-462 partner): T1 sequence (P19793 1-462 partner)
# Protocol: as §1, §2
# [3] = biological target: T3, Skate VDR (Leucoraja erinacea, UniProt A0A088GDQ7)
# T3 sequence (A0A088GDQ7 1-434): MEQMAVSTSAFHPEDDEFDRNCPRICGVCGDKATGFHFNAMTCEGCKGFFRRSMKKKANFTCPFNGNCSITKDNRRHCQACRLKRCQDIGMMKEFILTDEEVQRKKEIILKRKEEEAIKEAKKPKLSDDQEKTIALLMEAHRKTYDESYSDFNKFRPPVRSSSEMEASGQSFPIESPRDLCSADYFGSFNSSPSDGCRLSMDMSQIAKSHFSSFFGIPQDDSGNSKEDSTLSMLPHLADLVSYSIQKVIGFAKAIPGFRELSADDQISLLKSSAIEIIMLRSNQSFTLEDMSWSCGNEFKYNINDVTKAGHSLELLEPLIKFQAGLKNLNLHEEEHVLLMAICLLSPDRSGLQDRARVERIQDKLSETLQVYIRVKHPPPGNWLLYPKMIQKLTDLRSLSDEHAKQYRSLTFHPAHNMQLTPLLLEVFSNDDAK
# T3 sequence (P19793 1-462 partner): T1 sequence (P19793 1-462 partner)
# Protocol: as §1, §2
smiles,measurement,setting,value
"C[C@H](CCC(=O)O)[C@H]1CC[C@H]2[C@@H]3CC[C@@H]4C[C@H](O)CC[C@]4(C)[C@H]3CC[C@]12C [LCA, 5β-cholanic acid-3α-ol]",Ki,[1],8.7 µM
same,Ki,[2],7.6 ± 1.1 µM
same,Ki,[3],6.7 ± 2.1 µM

# — PMC5152921, “Evolutionary and Functional Diversification of the Vitamin D Receptor-Lithocholic Acid Partnership” (PLoS ONE, 2016)
